Source: US9416162B2, “Peptides having reduced toxicity that stimulate cholesterol efflux” (The Regents of the University of California, priority 2013, dated 2016)
Non-standard residues stand in square brackets, D forms with d. No end group written: not given here. Cit = NC(=O)NCCC[C@H](N)C(=O)O

Test system: apoE−/− mice
Assay: Atherosclerosis in apoE−/− mice on high-fat western diet, whole aorta Oil-Red O staining
Type: in vivo, mouse
Conditions: IP 30 mg/kg at 48 hour intervals for 6 weeks
Protocol: Male apoE^−/− mice at 8 weeks of age were fed a high-fat western diet for 14 weeks. Mice were subsequently randomized to either a control group to receive IP injection of vehicle alone or lipid-free peptide (30 mg/kg) at 48 hour intervals for 6 weeks. […] The extent of whole aorta covered with fatty lesions is shown, determined by Oil-Red O staining. Values are means±SD, n=10 mice per group.
CS6253, another synthesis batch of T5237-4, was administered IP at 10 mg/kg for 10 weeks showing again reduction of substantial atherosclerosis in apoE^−/− mice (FIG. 36). Male apoE^−/− mice at 8 weeks of age were fed a high-fat western diet for 14 weeks. Mice were subsequently randomized to either a control group to receive IP injection of vehicle alone or lipid-free CS6253 (10 mg/kg) at 48 hour intervals for 10 weeks while the mice remained on high-fat western diet. The extent of whole aorta covered with fatty lesions is shown, determined by Oil-Red O staining. Values are means±SD, n=10 mice per group.
CS6253 administered SC also reduce substantial atherosclerosis in apoE KO mice. Male apoE−/− mice at 8 weeks of age were fed a high-fat western diet for 14 weeks (FIG. 37). One group was terminated before treatment start as baseline control. Mice were subsequently randomized to one of 3 arms to receive subcutaneous (SC) injection alternate days for 6 weeks; vehicle alone, CS6253 30 mg/kg or CS6253 60 mg/kg. During the first 4 treatment weeks the mice remained on high-fat western diet while during the last two weeks of treatment they were switched to chow diet. The extent of whole aorta covered with fatty lesions is shown, determined by Oil-Red O staining. Values are means±SD, n=10 mice per group.

Substance: T5460-1: citrulline form of LeuATI-5261 possessing a single R3→Citrulline substitution (EV[Cit]SKLEEWLAALRELAEELLARLKS)
- extent of whole aorta covered with fatty lesions: reduced atherosclerosis
